The subject of the assay is ligand-dependent transcription factors (AhR, ER, and AR). Description: Reporter gene (luciferase) assay in Neuro2a cells carrying PGV-THp03 (SEQ ID No: 2). It counts as cell-based, mouse. Particulars: for luciferase activity increase: 30 hours, PGV-THp03, AhR-introduced Neuro2a. As to the method:
A vector (PGV-THp03) containing the upstream region (SEQ ID No: 2) ranging from about −300 to 0 position of the TH gene-coding region, which was prepared in Example 4, was used. Neuro2a was used as the cell.
Two kinds of vectors, pcDNA4-rAhR (Example 1) and pcDNA4/V5-His/lacZ (Invitrogen), were introduced into Neuro2a, together with PGV-THp03. pcDNA4-rAhR was introduced for constitutive expression of the SD-line rat AhR gene (SEQ ID No: 10) in the cell, and pcDNA4/V5-His/lacZ was introduced for normalization of the vector transfection efficiency.
The vectors were introduced into the cell by using LIPOFECTAMINE 2000 (Invitrogen). The cell was cultured on a 24-well plate, and the operation was performed according to the manual of Invitrogen. A total of […] of vectors (0.4 μg of PGV-THp03, 0.2 μg of pcDNA4-rAhR, and 0.2 μg of pcDNA4/V5-His/lacZ) suspended in 50 μl of OPTI-MEM medium and 2 μl of LIPOFECTAMINE 2000 suspended in 50 μl of OPTI-MEM medium were mixed, and incubated at room temperature for 20 minutes to form nucleic acid/LIPOFECTAMINE 2000 complex. The obtained suspension containing the complex was added to Neuro2a cell culture, which has been previously cultured overnight in 500 μl of DF1:1 medium (containing 10% fetal calf serum) (0.8×10^5 cells were seeded on previous day), to allow incorporation of the vectors into the cell. The cell was cultured additionally for 24 hours after transfection, for the purpose of improvement in vector incorporation efficiency and expression of the protein derived from the introduced vectors.
As the test substances, vinclozolin (10 μM), dimethyl phthalate (10 μM), benzopyrene (1 μM), and dioxin (TCDD) (10 nM) were used. After the transfection and the additional incubation for 24 hours, the medium was replaced with a fresh medium containing any one of the test substances, and the cell was cultured additionally for 30 hours. After 30 hours, the medium was removed from the 24-well plate, and the cell was washed with phosphate buffer twice. 100 μl of a protein extraction solution (manufactured by TOYO B-NET) was added to each well, and the cell suspension was stirred gently at room temperature for 15 minutes and then frozen at −80° C. The frozen solution was thawed at room temperature, and the resulting solution was recovered in a tube and diluted ten times with a protein extraction reagent containing 1 mg/ml bovine serum albumin luciferase and β-galactosidase activities in the diluted solution were measured, and the expression amount of the reporter gene was calculated as a relative luminescence intensity per 1 ng of β-galactosidase per second (RLU/sec/ng β-galactosidase).
(In general: A reporter such as luciferase makes a cellular process visible.)

For `C=CC1(C)OC(=O)N(c2cc(Cl)cc(Cl)c2)C1=O` (stereo not shown) [vinclozolin], the luciferase activity increase result (10 μM) was “approximately 1.3 times”. Also, the “change in luciferase activity” value (10 μM, PGV-THp03, cell with no AhR introduced) is reported as “no change in luciferase activity”.

For `c1ccc2c(c1)c1cccc3ccc4cccc2c4c31` [benzopyrene], under “1 μM”, the luciferase activity increase result is “approximately 1.3 times”.

Consider `COC(=O)c1ccccc1C(=O)OC` [Dimethyl phthalate, dimethyl phthalate], for which, for the setting “10 μM”, the luciferase activity increase entry is given as “approximately 1.2 times”.

The record behind these values is patent US7811760B2, “Vector and method for detecting the change in transcription amount” (priority 2006, dated 2010).
